In PubChem BioAssay (NCI):
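Cultured in 96-well plates, cells were exposed to test compound for 48 hours across five concentrations. The concentration for 50% growth inhibition is given as GI50. TGI is the concentration that stops growth completely.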

Assays:
Assay in all cases: inhibition of tumour cell growth, NCI panel, 48 h
OVCAR-4 ovarian = tested on: OVCAR-4 ovarian
MCF7 breast = tested on: MCF7 breast
HT29 colon = tested on: HT29 colon
NCI-H522 lung = tested on: NCI-H522 lung
786-0 renal = tested on: 786-0 renal
HL-60(TB) leukemia = tested on: HL-60(TB) leukemia
UACC-62 melanoma = tested on: UACC-62 melanoma
BT-549 breast = tested on: BT-549 breast
DU-145 prostate = tested on: DU-145 prostate
SNB-19 CNS = tested on: SNB-19 CNS
MALME-3M melanoma = tested on: MALME-3M melanoma
HS 578T breast = tested on: HS 578T breast
SN12C renal = tested on: SN12C renal
A549 NSCLC = tested on: A549 NSCLC
SK-OV-3 ovarian = tested on: SK-OV-3 ovarian
A498 renal = tested on: A498 renal
RXF 393 renal = tested on: RXF 393 renal
MOLT-4 leukemia = tested on: MOLT-4 leukemia
K-562 leukemia = tested on: K-562 leukemia
SF-539 CNS = tested on: SF-539 CNS
OVCAR-5 ovarian = tested on: OVCAR-5 ovarian
SK-MEL-5 melanoma = tested on: SK-MEL-5 melanoma
OVCAR-8 ovarian = tested on: OVCAR-8 ovarian
ACHN renal = tested on: ACHN renal
SR leukemia = tested on: SR leukemia
COLO 205 colon = tested on: COLO 205 colon
MDA-MB-435 = tested on: MDA-MB-435
MDA-MB-231 breast = tested on: MDA-MB-231 breast
PC-3 prostate = tested on: PC-3 prostate
OVCAR-3 ovarian = tested on: OVCAR-3 ovarian
TK-10 renal = tested on: TK-10 renal
HCT-116 colon = tested on: HCT-116 colon
CCRF-CEM leukemia = tested on: CCRF-CEM leukemia
HCT-15 colon = tested on: HCT-15 colon
M14 melanoma = tested on: M14 melanoma
UACC-257 melanoma = tested on: UACC-257 melanoma
HCC-2998 colon = tested on: HCC-2998 colon
U251 CNS = tested on: U251 CNS
RPMI-8226 leukemia = tested on: RPMI-8226 leukemia
EKVX NSCLC = tested on: EKVX NSCLC
HOP-62 NSCLC = tested on: HOP-62 NSCLC
SNB-75 CNS = tested on: SNB-75 CNS
IGROV1 ovarian = tested on: IGROV1 ovarian
NCI-H460 lung = tested on: NCI-H460 lung
CAKI-1 renal = tested on: CAKI-1 renal
HOP-92 NSCLC = tested on: HOP-92 NSCLC
SK-MEL-2 melanoma = tested on: SK-MEL-2 melanoma
NCI-H226 lung = tested on: NCI-H226 lung
SW-620 colon = tested on: SW-620 colon
SF-295 CNS = tested on: SF-295 CNS
UO-31 renal = tested on: UO-31 renal
KM12 colon = tested on: KM12 colon
LOX IMVI melanoma = tested on: LOX IMVI melanoma
NCI-H23 lung = tested on: NCI-H23 lung
SK-MEL-28 melanoma = tested on: SK-MEL-28 melanoma
SF-268 CNS = tested on: SF-268 CNS
NCI/ADR-RES ovarian = tested on: NCI/ADR-RES ovarian

COc1ccc(/C=C(/C(=O)N2CCN(c3ccc(C)cc3)CC2)c2cc(OC)c(OC)c(OC)c2)cc1N
GI50 (OVCAR-4 ovarian): 3210 nM
TGI (OVCAR-4 ovarian): > 100000 nM
GI50 (MCF7 breast): 228 nM
TGI (MCF7 breast): > 100000 nM
GI50 (HT29 colon): 339 nM
TGI (HT29 colon): > 39200 nM
GI50 (NCI-H522 lung): 168 nM
TGI (NCI-H522 lung): > 100000 nM
GI50 (786-0 renal): 320 nM
TGI (786-0 renal): > 100000 nM
GI50 (HL-60(TB) leukemia): 255 nM
TGI (HL-60(TB) leukemia): 679 nM
GI50 (UACC-62 melanoma): 362 nM
TGI (UACC-62 melanoma): > 100000 nM
GI50 (BT-549 breast): 199 nM
TGI (BT-549 breast): 4790 nM
GI50 (DU-145 prostate): 307 nM
TGI (DU-145 prostate): > 76300 nM
GI50 (SNB-19 CNS): 426 nM
TGI (SNB-19 CNS): > 100000 nM
GI50 (MALME-3M melanoma): 503 nM
TGI (MALME-3M melanoma): > 100000 nM
GI50 (HS 578T breast): 291 nM
TGI (HS 578T breast): > 100000 nM
GI50 (SN12C renal): 483 nM
TGI (SN12C renal): > 100000 nM
GI50 (A549 NSCLC): 426 nM
TGI (A549 NSCLC): > 100000 nM
GI50 (SK-OV-3 ovarian): 755 nM
TGI (SK-OV-3 ovarian): > 100000 nM
GI50 (A498 renal): 57.1 nM
TGI (A498 renal): 2300 nM
GI50 (RXF 393 renal): 271 nM
TGI (RXF 393 renal): > 100000 nM
GI50 (MOLT-4 leukemia): 437 nM
TGI (MOLT-4 leukemia): > 100000 nM
GI50 (K-562 leukemia): 222 nM
TGI (K-562 leukemia): > 100000 nM
GI50 (SF-539 CNS): 176 nM
TGI (SF-539 CNS): 717 nM
GI50 (OVCAR-5 ovarian): 715 nM
TGI (OVCAR-5 ovarian): > 100000 nM
GI50 (SK-MEL-5 melanoma): 228 nM
TGI (SK-MEL-5 melanoma): 661 nM
GI50 (OVCAR-8 ovarian): 417 nM
TGI (OVCAR-8 ovarian): > 100000 nM
GI50 (ACHN renal): 203 nM
TGI (ACHN renal): > 100000 nM
GI50 (SR leukemia): 238 nM
TGI (SR leukemia): > 100000 nM
GI50 (COLO 205 colon): 339 nM
TGI (COLO 205 colon): 1470 nM
GI50 (MDA-MB-435): 108 nM
GI50 (MDA-MB-231 breast): 360 nM
TGI (MDA-MB-231 breast): > 100000 nM
GI50 (PC-3 prostate): 312 nM
TGI (PC-3 prostate): > 100000 nM
GI50 (OVCAR-3 ovarian): 239 nM
TGI (OVCAR-3 ovarian): 921 nM
GI50 (TK-10 renal): 4770 nM
TGI (TK-10 renal): > 100000 nM
GI50 (HCT-116 colon): 254 nM
TGI (HCT-116 colon): > 32900 nM
GI50 (CCRF-CEM leukemia): 394 nM
TGI (CCRF-CEM leukemia): > 100000 nM
GI50 (HCT-15 colon): 337 nM
TGI (HCT-15 colon): > 100000 nM
GI50 (M14 melanoma): 247 nM
TGI (M14 melanoma): 2480 nM
GI50 (UACC-257 melanoma): > 87300 nM
TGI (UACC-257 melanoma): > 100000 nM
GI50 (HCC-2998 colon): 376 nM
TGI (HCC-2998 colon): > 100000 nM
GI50 (U251 CNS): 397 nM
TGI (U251 CNS): > 100000 nM
GI50 (RPMI-8226 leukemia): 284 nM
TGI (RPMI-8226 leukemia): > 33700 nM
GI50 (EKVX NSCLC): 628 nM
TGI (EKVX NSCLC): > 100000 nM
GI50 (HOP-62 NSCLC): 474 nM
TGI (HOP-62 NSCLC): > 100000 nM
GI50 (SNB-75 CNS): 509 nM
TGI (SNB-75 CNS): > 100000 nM
GI50 (IGROV1 ovarian): 304 nM
TGI (IGROV1 ovarian): > 100000 nM
GI50 (NCI-H460 lung): 347 nM
TGI (NCI-H460 lung): > 44000 nM
GI50 (CAKI-1 renal): 465 nM
TGI (CAKI-1 renal): > 100000 nM
GI50 (HOP-92 NSCLC): 205 nM
TGI (HOP-92 NSCLC): > 100000 nM
GI50 (SK-MEL-2 melanoma): 640 nM
TGI (SK-MEL-2 melanoma): > 100000 nM
GI50 (NCI-H226 lung): 352 nM
TGI (NCI-H226 lung): > 100000 nM
GI50 (SW-620 colon): 407 nM
TGI (SW-620 colon): > 100000 nM
GI50 (SF-295 CNS): 287 nM
TGI (SF-295 CNS): > 100000 nM
GI50 (UO-31 renal): 242 nM
TGI (UO-31 renal): > 35300 nM
GI50 (KM12 colon): 314 nM
TGI (KM12 colon): > 100000 nM
GI50 (LOX IMVI melanoma): 221 nM
TGI (LOX IMVI melanoma): > 100000 nM
GI50 (NCI-H23 lung): 438 nM
TGI (NCI-H23 lung): > 100000 nM
GI50 (SK-MEL-28 melanoma): 540 nM
TGI (SK-MEL-28 melanoma): > 100000 nM
GI50 (SF-268 CNS): 430 nM
TGI (SF-268 CNS): > 100000 nM
GI50 (NCI/ADR-RES ovarian): 293 nM
TGI (NCI/ADR-RES ovarian): 21700 nM
